For data set [1], the target named is T1, CYP2C19 (Homo sapiens, UniProt P33261).
T1 construct: Mixed human liver microsomes (HLM) were purchased from Corning Inc; tissue Corning Inc. or XenoTech, LLC. or other suppliers; host or cells: pooled human liver microsomes
In words: Human liver microsomal CYP inhibition experiment, CYP2C19. In kind it is in vitro ADME. On the procedure:
(§1) Experiment Embodiment 4: Human Liver Microsomal CYP Inhibition Experiment
(§2) The inhibitory effects of the test compound 3A and VK5211 on the activities of human liver microsomal cytochrome P450 isozymes (CYP1A2, CYP2C9, CYP2C19, CYP2D6 and CYP3A4) were determined.
(§3) Mixed human liver microsomes (HLM) were purchased from Corning Inc. (Steuben, New York, USA) or XenoTech, LLC. (Lenexa, Kans., USA) or other suppliers, and were stored at a temperature below −60° C. before use.
(§4) First, the test compound (10.0 mM) was gradient diluted to prepare working solution (100×final concentration), and the concentrations of the working solution were: 5.00, 1.50, 0.500, 0.150, 0.0500, 0.0150, 0.00500 mM, and a working solution of each positive inhibitor of P450 isozymes (CYP1A2, CYP2C9, CYP2C19, CYP2D6, and CYP3A4) and a specific substrate mixture thereof (5 in 1) were prepared at the same time; human liver microsomes stored in a refrigerator at a temperature lower than −60° C. were put on ice to thaw, and when all the human liver microsomes were dissolved, the microsomes were diluted with potassium phosphate buffer (PB) to prepare a working solution of a certain concentration (0.253 mg/mL). […] The concentration of metabolites produced by the probe substrate in the sample was determined by liquid chromatography-tandem mass spectrometry (LC-MS/MS) method. […]
Background: Liver microsomes are a subcellular fraction often used to study metabolism.

For data set [2], the target named is T2, CYP2D6 (Homo sapiens, UniProt P10635).
T2 construct: Mixed human liver microsomes (HLM) were purchased from Corning Inc; tissue Corning Inc. or XenoTech, LLC. or other suppliers; host or cells: pooled human liver microsomes
The experiment in a line: Human liver microsomal CYP inhibition experiment, CYP2D6. In kind it is in vitro ADME. How it is done: as §1, §2, §3, §4

Data set [3] deals with T3, CYP1A2 (Homo sapiens, UniProt P05177).
T3 construct: Mixed human liver microsomes (HLM) were purchased from Corning Inc; tissue Corning Inc. or XenoTech, LLC. or other suppliers; host or cells: pooled human liver microsomes
T3 sequence (P05177 1-516): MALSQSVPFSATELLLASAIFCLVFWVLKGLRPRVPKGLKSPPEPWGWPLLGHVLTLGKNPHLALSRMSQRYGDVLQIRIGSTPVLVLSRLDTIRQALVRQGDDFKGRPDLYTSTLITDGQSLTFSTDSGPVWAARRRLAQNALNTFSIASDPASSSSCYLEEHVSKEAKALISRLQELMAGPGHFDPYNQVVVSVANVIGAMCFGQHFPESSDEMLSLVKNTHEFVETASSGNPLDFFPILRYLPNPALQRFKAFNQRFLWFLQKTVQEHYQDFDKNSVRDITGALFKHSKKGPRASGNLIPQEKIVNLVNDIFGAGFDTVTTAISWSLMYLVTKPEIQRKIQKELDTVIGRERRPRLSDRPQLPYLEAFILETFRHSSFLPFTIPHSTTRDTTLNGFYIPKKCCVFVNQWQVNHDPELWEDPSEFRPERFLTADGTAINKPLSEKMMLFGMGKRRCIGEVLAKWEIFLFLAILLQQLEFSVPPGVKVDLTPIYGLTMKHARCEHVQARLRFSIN
In words: Human liver microsomal CYP inhibition experiment, CYP1A2. In kind it is in vitro ADME. On the procedure:
as §1, §2, §3, §4

In data set [4] the test system is muscle growth model of female rats. In words: In vivo pharmacodynamic study for muscle growth in female rats. The following applies: female SD rats, 10 mg/kg oral, QD × 37 days. The text has this: Experimental Embodiment 3: In Vivo Pharmacodynamic Study of the Compounds of the Present Disclosure for Muscle Growth in Female Rats
From 16 female SD rats, 12 were selected and randomly divided into 2 groups of 6 animals each according to their body weight, with 2 spare animals in each group; the vehicle was (5% Tween 80+90% polyethylene glycol 400+5% polyvinylpyrrolidone K30): 1% carboxymethyl cellulose=1:9 (v/v).
The rats were acclimatized in the ecological feeding box for 1 week at approximately 2 months of age, and after the acclimatization period, the rats were divided equally into 2 groups (n=6) according to body weight, and the vehicle and compound 3A were administered by gavage, once a day, for 5 weeks, at which time the animals were euthanized, and the tissues (muscle tissue: levator anal muscle, vaginal smooth muscle and gastrocnemius; gonad-related tissue: clitoris) were collected by necropsy and weighed.

Results on one compound are retold here after patent publication US20230012570A1, “BICYCLIC COMPOUND USED AS SELECTIVE ANDROGEN RECEPTOR MODULATOR” (MEDSHINE DISCOVERY INC., priority 2019, published 2023).

T2 sequence (P10635 whole entry): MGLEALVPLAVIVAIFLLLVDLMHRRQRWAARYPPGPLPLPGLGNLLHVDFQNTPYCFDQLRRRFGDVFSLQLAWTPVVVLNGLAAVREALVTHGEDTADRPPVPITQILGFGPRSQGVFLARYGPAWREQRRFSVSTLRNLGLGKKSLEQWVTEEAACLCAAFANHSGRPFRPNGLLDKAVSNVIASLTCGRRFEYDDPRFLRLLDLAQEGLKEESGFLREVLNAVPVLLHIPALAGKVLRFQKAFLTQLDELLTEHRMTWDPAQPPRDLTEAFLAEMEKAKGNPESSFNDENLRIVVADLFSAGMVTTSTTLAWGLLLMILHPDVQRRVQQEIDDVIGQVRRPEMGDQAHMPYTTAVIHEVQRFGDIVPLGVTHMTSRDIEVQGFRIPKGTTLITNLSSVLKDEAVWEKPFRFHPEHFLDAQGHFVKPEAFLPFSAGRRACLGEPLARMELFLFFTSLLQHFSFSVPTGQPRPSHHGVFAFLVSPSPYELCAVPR
T1 sequence (P33261 whole entry): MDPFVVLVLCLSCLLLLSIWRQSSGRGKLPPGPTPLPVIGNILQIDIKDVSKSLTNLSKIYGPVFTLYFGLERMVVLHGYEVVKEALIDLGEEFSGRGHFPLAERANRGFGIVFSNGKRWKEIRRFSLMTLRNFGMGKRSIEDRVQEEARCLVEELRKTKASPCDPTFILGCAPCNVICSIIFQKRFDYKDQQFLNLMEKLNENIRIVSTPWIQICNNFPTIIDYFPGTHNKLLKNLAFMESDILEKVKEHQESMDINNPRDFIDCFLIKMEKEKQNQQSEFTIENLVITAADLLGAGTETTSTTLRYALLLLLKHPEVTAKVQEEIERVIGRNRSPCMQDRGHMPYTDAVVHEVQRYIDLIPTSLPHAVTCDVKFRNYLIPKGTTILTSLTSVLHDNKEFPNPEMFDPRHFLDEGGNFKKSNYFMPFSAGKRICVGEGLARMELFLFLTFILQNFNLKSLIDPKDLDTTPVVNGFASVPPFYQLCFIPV

The compound `N#Cc1ccc(N2CC3CC3C2C(O)C(F)(F)F)cc1Cl` (single isomer, unassigned) [Compound 3A] returned an IC50 in data set [1] of 12.1 µM. In data set [2], this compound gave a concentration for half-maximal inhibition (IC50) greater than 50 µM. Besides, inhibition in data set [3] was half-maximal at 29.3 µM (IC50). Also, in data set [4], the “abnormalities / tolerability of the animals” value is “no significant abnormalities”, the “increase of animal body weight compared with the vehicle group” value is recorded as 20%, the “increase of animal muscle weight compared with the vehicle group” value is given as 34% and the “increase of clitoral weight compared with the vehicle group (gonad-related tissue)” value came to 19%.

By IC50 is commonly meant the concentration that gives 50% inhibition. Low readings indicate higher potency, high ones lower potency.
